Here are results for nine molecules from ChEMBL document CHEMBL1201862, “PubChem BioAssay data set” (2004).

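Tested at 5 concentrations; 48 h exposure; 96-well plates; endpoints linearly interpolated, else capped at highest concentration. GI50 is the concentration that inhibits growth by half.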 Active and inactive are the calls of the source. Cut-off read from the data, not from the text of the source: active = GI50 up to about 1.1 µM and inactive = higher. A value given as a limit tells only on which side of the number the result lay.

Test systems include CAKI-1; NCI-H522; NCI-H226; HOP-62; RPMI-8226; U-251; HCT-15; Malme-3M; K562; SF-268; 786-0; OVCAR-5; HCT-116; ACHN; UO-31; COLO 205; SK-MEL-5; NCI-H23; OVCAR-3.
Holding throughout (test): NCI anticancer screen, dose series, 48 h

As to `CC(=O)Nc1c(C)ccc2c1C(=O)c1ccccc1C2=O`, the GI50 is 56.5 µM (inactive) in the assay with CAKI-1; > 100 µM (inactive) with NCI-H522; > 100 µM (inactive) in the assay with NCI-H226; > 100 µM (inactive) in the assay with HOP-62; 65.8 µM (inactive) in the assay with RPMI-8226; > 100 µM (inactive) in the assay with U-251. The GI50 is more than 100 µM in the assay on HCT-15; > 100 µM (inactive) in the assay on Malme-3M; > 100 µM (inactive) in the assay on K562; > 100 µM (inactive) in the assay on SF-268; > 100 µM (inactive) in the assay on 786-0; > 100 µM (inactive) with OVCAR-5. Also, the GI50 with HCT-116 is 91.8 µM (inactive); with ACHN, > 100 µM (inactive); in the assay with UO-31, 77.1 µM (inactive); in the assay on COLO 205, > 100 µM (inactive); with SK-MEL-5, > 100 µM (inactive).

Turning to `CN1N=CSC12C(=O)N(c1ccc(Cl)cc1)C(=O)N2c1ccc(Cl)cc1` (configuration not stated), the GI50 in the assay on CAKI-1 was 3.92 µM (inactive); in the assay on NCI-H522, 2.05 µM (inactive); in the assay with NCI-H226, 3.04 µM (inactive); in the assay with NCI-H23, 2.12 µM (inactive); in the assay on HOP-62 it was 3.69 µM (inactive); in the assay on RPMI-8226 it was 2.6 µM (inactive). Moreover, the GI50 in the assay on U-251 was 3.67 µM (inactive); in the assay on Malme-3M, 3.55 µM (inactive); in the assay on K562 it was 2.99 µM (inactive); in the assay with SF-268, 5.41 µM (inactive); in the assay with OVCAR-3, 1.43 µM (inactive); in the assay with 786-0, 4.22 µM (inactive). Further, the GI50 with HCT-116 was 3.15 µM (inactive); in the assay with ACHN it was 2.77 µM (inactive); with UO-31, 2.85 µM (inactive); with COLO 205, 1.93 µM (inactive); with SK-MEL-5, 3.55 µM (inactive).

Turning to `CN1CCN(C)C1c1cccc(C2N(C)CCN2C)c1`, the GI50 in the assay on NCI-H522, with NCI-H226, in the assay on NCI-H23, with HOP-62, in the assay on RPMI-8226 and in the assay on U-251 was > 100 µM (inactive) throughout. For the same molecule, the GI50 with HCT-15 is more than 100 µM; with K562, 46.2 µM (inactive); in the assay with SF-268, > 100 µM (inactive); in the assay with OVCAR-3, > 100 µM (inactive); in the assay with 786-0, > 100 µM (inactive); in the assay on OVCAR-5 it was > 100 µM (inactive). Moreover, the GI50 with HCT-116, in the assay on ACHN, with UO-31 and with COLO 205 was > 100 µM (inactive) throughout.

For the molecule `O=S1(=O)OCCOS(=O)(=O)C1(I)I`, the GI50 is 17.3 µM (inactive) in the assay on CAKI-1; 18.7 µM (inactive) in the assay on NCI-H522; 15.3 µM (inactive) in the assay on NCI-H226; 11.1 µM (inactive) in the assay with NCI-H23; 19.6 µM (inactive) in the assay with HOP-62; 9.12 µM (inactive) with RPMI-8226. Besides, the GI50 with Malme-3M is 20.4 µM (inactive); in the assay on K562 it was 29.5 µM (inactive); in the assay on SF-268, 20.4 µM (inactive); with OVCAR-3, 24 µM (inactive); in the assay with 786-0, 20.1 µM (inactive); in the assay with HCT-116, 16.3 µM (inactive). Further, the figures for the GI50 in the assay with UO-31, in the assay on COLO 205 and in the assay with SK-MEL-5 were 18.7 µM (inactive), 16.9 µM (inactive) and 15.5 µM (inactive), respectively.

For the molecule `O=C1N(Cl)C(=O)C(c2ccc(Cl)cc2)(c2ccc(Cl)cc2)N1Cl`, the GI50 in the assay on CAKI-1 is > 100 µM (inactive); with NCI-H522, 64.4 µM (inactive); in the assay with NCI-H226 it was > 100 µM (inactive); in the assay with NCI-H23, > 100 µM (inactive); in the assay on RPMI-8226 it was 41.2 µM (inactive); with U-251, > 100 µM (inactive). Further, the GI50 in the assay on HCT-15 is 91.8 µM; with Malme-3M, > 100 µM (inactive); in the assay with K562, > 100 µM (inactive); with SF-268, > 100 µM (inactive); with OVCAR-3 it was > 100 µM (inactive); with 786-0, 48.3 µM (inactive). The GI50 is 72.6 µM (inactive) with HCT-116; 55.8 µM (inactive) in the assay on ACHN; 92.5 µM (inactive) in the assay on UO-31; 41.8 µM (inactive) with COLO 205; > 100 µM (inactive) in the assay on SK-MEL-5.

Consider `CC(C)(C)S(=O)OC12CC3CC(CC(C3)C1)C2` (configuration not stated), for which the GI50 in the assay on NCI-H522, with NCI-H226, in the assay with NCI-H23, in the assay on HOP-62, in the assay on RPMI-8226 and with U-251 was > 100 µM (inactive) in each case. Also, the GI50 is more than 100 µM in the assay with HCT-15; > 100 µM (inactive) in the assay with Malme-3M; > 10 µM (inactive) in the assay with K562; > 100 µM (inactive) with SF-268; > 100 µM (inactive) in the assay with OVCAR-3; > 100 µM (inactive) in the assay on 786-0. For the same molecule, the GI50 in the assay on OVCAR-5 was > 100 µM (inactive); in the assay with HCT-116 it was > 100 µM (inactive); with ACHN, > 100 µM (inactive); in the assay on UO-31, 92 µM (inactive); in the assay with COLO 205 it was > 100 µM (inactive); with SK-MEL-5, > 100 µM (inactive).

Turning to `CCCCCCCCCCCCCP(=O)(O)NCC(N)=O`, the GI50 with NCI-H522 was 34.5 µM (inactive); with NCI-H226, 62.4 µM (inactive); in the assay on NCI-H23, > 100 µM (inactive); in the assay with HOP-62, 37.8 µM (inactive); with RPMI-8226 it was 35.1 µM (inactive); in the assay with U-251 it was 33.5 µM (inactive). The GI50 with HCT-15 was 39.9 µM; in the assay on Malme-3M, > 100 µM (inactive); with SF-268 it was 48.4 µM (inactive); in the assay with OVCAR-3, 39 µM (inactive); with 786-0 it was > 100 µM (inactive); in the assay on OVCAR-5, > 100 µM (inactive). For the same molecule, the GI50 is 45.7 µM (inactive) with HCT-116; 28.6 µM (inactive) in the assay on ACHN; 27.7 µM (inactive) with UO-31; > 100 µM (inactive) in the assay with COLO 205; 61.1 µM (inactive) in the assay with SK-MEL-5.

On to `CNC(=O)NCCCCC(NC(=O)OCc1ccccc1)C(=O)OCc1ccccc1` (configuration not stated), for which the GI50 is 23.7 µM (inactive) with CAKI-1; 14.5 µM (inactive) in the assay on NCI-H522; 60.3 µM (inactive) with NCI-H226; 29.3 µM (inactive) with NCI-H23; 8.81 µM (inactive) in the assay with HOP-62; 24.2 µM (inactive) in the assay with RPMI-8226. In addition, the GI50 with U-251 is 23.9 µM (inactive); with HCT-15 it was more than 100 µM; in the assay with Malme-3M, 14.4 µM (inactive); in the assay with K562, 44.3 µM (inactive); with OVCAR-3, 16.1 µM (inactive); in the assay on 786-0, 17.5 µM (inactive). Further, the GI50 in the assay with OVCAR-5 was 46 µM (inactive); with HCT-116, 51.6 µM (inactive); with ACHN it was 19.1 µM (inactive); in the assay with UO-31, 18.2 µM (inactive); in the assay on COLO 205 it was 17.7 µM (inactive); with SK-MEL-5, 48.6 µM (inactive).

Take `CC/C(=N/O)C(C)C(=O)CCC(=O)Nc1ccc(Cl)cc1` (configuration not stated): the GI50 with CAKI-1 was > 100 µM (inactive); in the assay on NCI-H226, > 100 µM (inactive); in the assay on NCI-H23, > 100 µM (inactive); with RPMI-8226 it was > 100 µM (inactive); in the assay with U-251 it was > 100 µM (inactive); with HCT-15 it was 26.9 µM. Further, the GI50 is > 100 µM (inactive) in the assay on Malme-3M; 57.1 µM (inactive) in the assay with K562; > 100 µM (inactive) in the assay on SF-268; > 100 µM (inactive) in the assay on OVCAR-3; > 100 µM (inactive) in the assay on 786-0; > 100 µM (inactive) in the assay on OVCAR-5. The GI50 in the assay with HCT-116 was > 100 µM (inactive); with ACHN, 68.4 µM (inactive); in the assay with UO-31, > 100 µM (inactive); in the assay with COLO 205, > 100 µM (inactive); in the assay on SK-MEL-5 it was > 100 µM (inactive).
